The values below come from PubChem BioAssay (NCI).

Test systems include BT-549 breast; SN12K1 renal; MDA-MB-231 breast; P388 leukemia; PC-3 prostate; HOP-18 NSCLC; P388/ADR leukemia; MDA-N; T-47D breast; KM20L2 colon; MCF7 breast.
Common to all, as to experiment: NCI tumour cell line growth inhibition, 48 h

Where “and” joins values, the source holds several entries; their conditions need not be identical. Identical values can stand only once.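 Cells were grown in 96-well plates and exposed to each compound for 48 hours at five concentrations; endpoints were interpolated linearly between bracketing concentrations, or set to the highest concentration if not reached. GI50 = concentration required for 50% inhibition of growth. The concentration for full growth arrest is given as TGI.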

Turning to `COc1cc(NCc2ccc3nc(N)nc(N)c3c2C)cc(OC)c1OC` (tested in a mixture with another compound), the GI50 in the assay with BT-549 breast was 0.0611 µM; with MDA-MB-231 breast it was 0.0893 µM; with MDA-N, 0.025 µM. Moreover, the TGI was 34.2 µM and 45.4 µM with BT-549 breast; 36.6 µM in the assay with SN12K1 renal; 55.2 µM in the assay on MDA-MB-231 breast; 10 µM in the assay with P388 leukemia; 37.4 µM in the assay on PC-3 prostate; 146 µM with HOP-18 NSCLC. Besides, the TGI in the assay with P388/ADR leukemia is 12.7 µM; in the assay with MDA-N, 44.9 µM; with T-47D breast it was 65.7 µM; with KM20L2 colon it was 48.5 µM; with MCF7 breast it was 28.7 µM.
